Source: publication PMC6322304, “Phytohormone treatment induces generation of cryptic peptides with antimicrobial activity in the Moss Physcomitrella patens” (BMC Plant Biology, 2019)
Ends that are not written are not given here.

Assays:
[1] = test system: OPR3 gene; experiment: qRT-PCR of pathogenesis-related gene in treated protonema; type: cell-based, Physcomitrella patens; conditions: protonema incubated 1 h; MeJA 50 μM to 1 mM, SA 10 μM to 1 mM (Figure S8)
Experimental: Protonemata of the moss P. patens subsp. patens (“Gransden 2004”, Freiburg) were grown in 200 mL liquid Knop medium with 500 mg/L ammonium tartrate under white light with a photon flux of 61 μmol/m^2•s under a 16-h photoperiod at 24°C. For mass spectrometry analysis, five-d-old protonema tissue was treated with 0.4 mM MeJA and incubated for 1 h. […] To analyze antimicrobial activity of secretome five-d-old- protonema tissue was treated with different concentration of MeJA. Treatment with cocktail of protease inhibitors was performed according to the dilution 1:200, as recommended by the manufacturer (P1860 Sigma Aldrich, USA). At least three independent biological replicates were used for each type of analysis. To test the gene expression induced by the peptides, five-d-old protonema tissue was treated with either mock solution or 1 μM peptide solution and harvested after 2, 4, 8 and 24 h later. […]
Total RNA from protonemata was isolated as previously described. Quality and quantity were evaluated using electrophoresis on agarose gel with ethidium bromide staining. Total RNA concentration of samples was precisely measured using the Quant-iT™ RNA Assay Kit, 5–100 ng on a Qubit 3.0 (Invitrogen, US) fluorometer. cDNA was synthesized using the MMLV RT kit (Evrogen, Russia) according to the manufacturer’s recommendations. […]

[2] = test system: B. subtilis 168 HT; type: cell-based, Bacillus subtilis; conditions: 20 h
Experimental: (§1) A serial dilution method in sterile 96 Well Collection Plates (Corning 3870) in liquid MHB medium was used to define the minimum inhibitory concentration (MIC) of the peptides against E. coli K-12 MG 1655 and B. subtilis 168 HT as previously described. Diluted peptide (50 μL) in MHB medium was added to each well at the appropriate concentration (128 to 0.25 μg/mL), along with 50 μL of bacterial suspension at a concentration of 10^6 CFU/mL of microbial cells. The experiment was carried out in three replicates. Liquid MHB medium without the addition of the peptide used as a negative control. The plates were incubated at 37°С for 20 h without mixing. The MIC of the peptides was assessed visually and by measuring the spectrophotometric absorbance at 570 nm to identify the concentration that inhibited the visible growth of bacteria.

[3] = test system: E. coli K-12 MG 1655; type: cell-based, Escherichia coli; conditions: K-12, 20 h
Experimental: as §1

[4] = test system: E. coli and B. subtilis bacteria; type: cell-based, Escherichia coli; Bacillus subtilis
Experimental: as §1

With `CC/C=C\CC1C(=O)CCC1CC(=O)OC` (centres unmarked) [MeJA, methyl jasmonate] the “response of OPR3 transcription to hormone treatment (qRT-PCR)” value [1] was “clear response”.

With INIINAPLQGFKIA [INIINAPLQGFKIA] the “% inhibition, B. subtilis” value [2] was over 90%, the “MIC, B. subtilis” value [2] was 32 µg/mL and the “% inhibition, E. coli” value [3] was over 90%. The “MIC, E. coli” value [3] was 16 µg/mL.

With “KIKVAINGFGRIG [synthetic copy of a cellular moss peptide, fragment of glyceraldehyde-3-phosphate dehydrogenase (GAPDH)]” the “concentration at which bacterial growth was inhibited” value ([4]; on day 1 after inoculation, bacterium not named) was 128 µg/mL.

For LVQIGTKIVGVGRNYAAH [LVQIGTKIVGVGRNYAAH], the “% inhibition, B. subtilis” value [2] was over 90%, the “MIC, B. subtilis” value [2] was 64 µg/mL and the “minimum inhibitory concentration (MIC)” value ([4]; bacterium not given, serial dilution with E. coli and B. subtilis) was 64 µg/mL. For the same compound, the “% inhibition, E. coli” value [3] was over 90% and the “MIC, E. coli” value [3] was 64 µg/mL.
